Experimental data taken from patent US11406719B2, “Dichromic fluorescent compounds” (Washington University, priority 2008, dated 2022).
Like-named read-outs stand apart in the source and are kept apart here. Marks after values point to notes of the source that are not given here.

Tests used:
[1] = Fluorescence lifetime by time correlated single photon counting (TCSPC); type: physicochemical; conditions: for Lifetime at 700 nm (ns): excitation 650 nm, emission 700 nm
Method: Fluorescence lifetime (FLT) was measured using time correlated single photon counting (TCSPC) technique with excitation sources NanoLed® (HORIBA Jobin Yvon Inc.) at 700 nm and 773 nm and impulse repetition rate of 1 MHz at 90° to a R928P detector (Hamamatsu Photonics, Japan). The detector was set to either 750 nm (for Nanoled 700 nm) or for 820 nm (for Nanoled 773 nm) with a 20 nm bandpass. The electrical signal was amplified by TB-02 pulse amplifier (HORIBA Jobin Yvon Inc.) and the amplified signal was fed to the constant fraction discriminator CFD (Philips, Netherlands). The first detected photon represented the start signal by the time-to-amplitude converter (TAC) and the excitation pulse triggered the stop signal. The multi-channel analyzer (MCA) recorded repetitive start-stop signals from the TAC and generated a histogram of photons as a function of time-calibrated channels (6.878 ps/channel) until the peak signal reached 10,000 counts. The lifetime was recorded on a 50 ns scale. The instrument response function was obtained by using Rayleigh scatter of Ludox-40 (Sigma-Aldrich, St. Louis, Mo.) (0.03% in Milli-Q water) in a quartz cuvette at either 700 nm or 773 nm emission. DAS6 v6.1 decay analysis software (HORIBA Jobin Yvon Inc.) was used for lifetime calculations. The goodness of fit was judged by χ^2 values and Durbin-Watson parameters and visual observations of fitted line, residuals and autocorrelation function

[2] = Steady-state absorption and fluorescence properties (spectra, quantum yield, 700/800 nm emission); type: physicochemical; conditions: for fluorescence quantum yield: relative to ICG
Method: The polymethine dyes and their derivatives were dissolved in […] of DMSO as stock solutions. To prevent inner effect in the fluorescent measurements, aliquots […] were diluted with the solvent of interest until the absorbance at the excitation wavelength was 0.15. UV-Vis spectra were obtained on Beckman Coulter DU 640 UV-Vis spectrometer (Beckman Coulter, Inc., Fullerton, Calif.). Emission spectra were recorded on a Fluorolog-3 spectrofluorometer (HORIBA Jobin Yvon Inc., Edison, N.J.).
Fluorescent spectra were recorded by using 620 nm and 720 nm excitation wavelengths. Fluorescent quantum yield was measured at 720 nm with slits width of 5 nm for both excitation and emission. The fluorescence quantum yield of ICG in DMSO (Ψ=0.12) was used as a reference standard. All measurements were conducted at room temperature. Excitation scans were performed in the range of 500-720 nm with monitoring at 735 nm fluorescence intensity, and 600-815 nm with monitoring at 830 nm. Excitation scans were corrected by lamp intensity using the equation F=S/R.
The ratios of the 700 nm and 800 nm emission peaks were examined in different environments and simulated dilute conditions (e.g., binding to albumin). For this, the fluorescence behavior of compound 3 was determined in different solvents (i.e., methanol, water, and DMSO), pH levels (i.e., 2.5 and 10), and in the presence of albumin (which binds the dyes in its drug binding pocket). The spectral analysis was conducted as described above in Example 2. Spectra at pH 2.5 and 10.0 were obtained by titrating 20% DMSO/water solution with diluted aqueous HCl and NaOH.

[3] = DMSO; excitation 773 nm; emission 820 nm; from Berezin et al., 2007; cited from earlier work
[4] = In vivo dichromic fluorescence imaging of mouse ears; design: species or system nude mouse; conditions: 2 nmol intravenously
Excerpt: To assess the retention of dichromic fluorescence in vivo, 2 nmol of symmetrical ICG (compound 2) and nonsymmetrical cypate-S (compound 3) were each injected intravenously in a nude mouse. Mouse ears were imaged with a Li-Cor Odyssey system at two excitation (680 nm and 780 nm) and emission (700 and 800 nm) channels. […] Thus, the dual fluorescence contrast mechanism is tenable in vivo.

[5] = cited from earlier work
casein kinase II = experiment: Kinase-Glo Luminescent Kinase Assay; type: cell-based; conditions: A549 cells
Method: The following example was designed to further explore the use of cypate diserine (6) to monitor the activity of endogenous kinases. A549 cells (which express casein kinase II) were incubated with a standard casein kinase II peptide substrate or compound 6 (which is not specific for casein kinase II). Kinase activity was measured with the Kinase-Glo Luminescent Kinase Assay Platform (Promega Corp., Madison, Wis.) per the manufacturer's instructions. This assay measures free ATP in the reaction mixture. As phosphorylation increases, the levels of ATP decrease, and consequently, luminescence is inversely proportional to kinase activity.

A549 cells = experiment: Two-channel imaging of fluorescence enhancement of A549 cells; type: cell-based, human; conditions: 1 μM
Method: It was hypothesized that since cypate diserine could be phosphorylated in cells, it is possible that the initial phosphorylation of one serine (as indicated by an increase in the 700 nm channel) could be followed by phosphorylation of the second serine. […] To test this notion, A549 cells were incubated with of 1 μM of compound 6.

caspase-3 [6] = biological target: T1, caspase-3 (Homo sapiens, UniProt P42574); design: purchased CalBiochem; conditions: read-out: KM of the standard; cited from earlier work
T1 sequence (P42574 29-175 limits assumed): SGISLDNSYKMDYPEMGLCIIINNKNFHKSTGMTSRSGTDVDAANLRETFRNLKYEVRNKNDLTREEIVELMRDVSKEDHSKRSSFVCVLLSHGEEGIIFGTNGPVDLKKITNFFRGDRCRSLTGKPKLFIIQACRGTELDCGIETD
T1 sequence (P42574 176-277 limits assumed): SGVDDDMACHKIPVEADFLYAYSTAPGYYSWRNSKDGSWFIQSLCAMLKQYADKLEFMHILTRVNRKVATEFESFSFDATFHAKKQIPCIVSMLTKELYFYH

caspase-3 [7] = biological target: T1, caspase-3; experiment: In vivo imaging of caspase-3 activity in mouse ears; design: species or system nude mouse; conditions: 2 nmol intravenously; caspase-3-injected ear relative to saline-injected ear
Method: To assess the NIR optical imaging of caspase-3 activity, 2 nmol of the pre-quenched (FRET) cypate-DEVD (SEQ ID NO:4) probe was injected intravenously in a nude mouse, followed by intradermal injection of caspase-3 solution (right pinna) or saline (left pinna). This approach provides positive and negative controls in one set of experiments. Mouse ears were imaged with Li-Cor Odyssey single-channel (805 nm) NIR imaging system (Li-Cor Biosciences, Lincoln, Neb.). Images were captured before treatment, after injection of a probe and after intradermal injection of caspase-3 in the ear.

caspase-3 [8] = biological target: T1, caspase-3; experiment: Enzyme kinetics of NIR caspase-3 probe; type: biochemical; design: purchased CalBiochem; conditions: non-linear fit; 37° C.
Method: To examine the kinetics, a caspase-3 substrate was prepared using the standard FRET method where the tetrapeptide Asp-Glu-Val-Asp (DEVD—SEQ ID NO:4) was flanked by two cypate dyes (cypate-DEVD (SEQ ID NO:4) probe). Enzyme assays were performed with a fluorometer by using commercially available recombinant caspase-3 (CalBiochem). An aliquot of the cypate-DEVD (SEQ ID NO:4) probe (substrate concentrations ranged from 70 nM to 100 μM) was dissolved in DMSO and added to a buffer comprising 10 mM PIPES, pH 7.4, 2 mM EDTA, 0.1% CHAPS, and 5 mM DTT. Five units of the enzyme were added, and the assay was performed at 37° C. A control experiment under the same conditions but with no enzyme was conducted at the same time. The apparent Km for the cypate-DEVD (SEQ ID NO:4) probe for caspase-3 was calculated with the Cheng-Prusoff equation: […], where [S] is the concentration of substrate and Ki is the published inhibitory constant of DEVD (SEQ ID NO:4)-CHO. To generate EC50 values, initial rates were determined from the linear portion of substrate hydrolysis and were plotted against log-inhibitor concentration (DEVD (SEQ ID NO:4)-CHO). The apparent kcat values were calculated using the equation kcat=V(Km+[S])/[Et][S], where [S] is the concentration of substrate, [E] is the concentration of enzyme, and Vis the initial rate of cleavage. […]

## CC1(C)C(/C=C/C=C/C=C/C=C2/N(CCC(=O)O)c3ccc4ccccc4c3C2(C)C)=[N+](CCC(=O)[O-])c2ccc3ccccc3c21 [Compound 1, cypate, reference compound]
[1]; DMSO
  Lifetime at 700 nm (ns): Weak signal
[1]; in DMSO
  fluorescence lifetime at 800 nm: 0.86 ns
[2]
  contribution of the 700 nm emission in the overall fluorescence spectra: 18%
[3]
  Lifetime at 800 nm (ns): 0.87^c ns

## CC1(C)C(/C=C/C=C/C=C/C=C2/N(CCCCS(=O)(=O)O)c3ccc4ccccc4c3C2(C)C)=[N+](CCCCS(=O)(=O)[O-])c2ccc3ccccc3c21 [Compound 2, indocyanine green, reference compound]
[1]; DMSO
  Lifetime at 700 nm (ns): 1.50^d ns
[2]
  contribution of the 700 nm emission in the overall fluorescence spectra: 24%
[4]
  visibility of blood vessels in the 700 and 800 nm channels: showed the blood vessels only at the 800 nm channel
[3]
  Lifetime at 800 nm (ns): 0.97^c ns
[5]; in DMSO
  fluorescence quantum yield (reference standard): 0.12
[5]; in methanol
  fluorescence quantum yield (reference): 0.090

## CC1(C)C(/C=C/C=C/C=C/C=C2\N(CCC(=O)NC(CO)C(=O)O)c3ccc4ccccc4c3C2(C)C)=[N+](CCC(=O)NC(CO)C(=O)O)c2ccc3ccccc3c21 (stereo not drawn) [Compound 6, di-serine cypate]
[2]; methanol
  molar absorption coefficient: about 220,000 M^−1 cm^−1
  ratio of the 700/800 nm emission peaks: 0.36
  fluorescence quantum yield: 0.059
Casein kinase II
  luminescence (inversely proportional to kinase activity): concentration-dependent decreases in luminescence
A549 cells; 5 and 15 minutes
  fluorescence in the 700 nm and 800 nm emission channels: early fluorescence increase in the 700 nm emission channel
A549 cells; 30 and 45 minutes
  fluorescence in the 700 nm and 800 nm emission channels: fluorescence enhancement in both channels

## CC1(C)C(/C=C/C=C/C=C/C=C2\N(CCC(=O)NC(COP(=O)(O)O)C(=O)O)c3ccc4ccccc4c3C2(C)C)=[N+](CCC(=O)NC(CO)C(=O)O)c2ccc3ccccc3c21 (stereo not drawn) [Compound 7, monophosphoserine/serine cypate derivative]
[2]; methanol
  increase of the 700/800 nm ratio relative to symmetrical compound 6: 7 fold
  molar absorption coefficient: about 220,000 M^−1 cm^−1
  ratio of the 700/800 nm emission peaks: 2.5
  fluorescence quantum yield: 0.057

## Ac-DEVD-pNA [Ac-DEVD (SEQ ID NO:4)-pNA]
caspase-3 [6]
  Km: 11 µM

## cypate-DEVD (SEQ ID NO:4) probe: caspase-3 FRET substrate: tetrapeptide Asp-Glu-Val-Asp flanked by two cypate dyes
caspase-3 [7]
  magnitude and area of increase of fluorescence intensity (805 nm): significantly greater in the caspase-3-injected ear
caspase-3 [8]
  Km: 15 ± 3 µM
  kcat: 1.02 ± 0.06 s⁻¹

## cypate-NH2 [Compound 4]
[1]; DMSO
  Lifetime at 700 nm (ns): 1.40 ns
[1]; DMSO, excitation 773 nm, emission 820 nm
  Lifetime at 800 nm (ns): 0.90 ns
[2]
  contribution of the 700 nm emission in the overall fluorescence spectra: 82%
